# From article PMC6155907 (Molecules : A Journal of Synthetic Chemistry and Natural …, 2016)
# Tests used:
# [1] = test system: human GLP-1R (GLP-1R-YFP); assay: Confocal microscopy of receptor internalization; type: cell-based; settings: 5 min after 1 µM GLP-1; HEK-293 transiently expressing GLP-1R-YFP; live cell confocal microscopy; at least three experiments
# Procedure: HEK-293 cells transiently expressing GLP-1R-YFP were plated on to a poly-D-lysin-coated coverslip and mounted on to an “Attofluor” holder (Molecular Probes, Leiden, The Netherlands). The cellular location of GLP-1R-YFP was monitored by live cell confocal microscopy performed on a Zeiss LSM 510 meta system (Carl Zeiss, Oberkochen, Germany). YFP was excited with the 514 nm line of an argon laser, and images were taken with an oil-immersion 63× lens using the factory settings for YFP.
# [2] = test system: GLP-1R; settings: radioligand binding and time-resolved fluorescence resonance energy transfer; authors state own rate is in the same range; ref [22],[23]; cited from earlier work
smiles,measurement,setting,value
"CC[C@H](C)[C@H](NC(=O)[C@H](Cc1ccccc1)NC(=O)[C@H](CCC(=O)O)NC(=O)[C@H](CCCCN)NC(=O)[C@H](C)NC(=O)[C@H](C)NC(=O)[C@H](CCC(N)=O)NC(=O)CNC(=O)[C@H](CCC(=O)O)NC(=O)[C@H](CC(C)C)NC(=O)[C@H](Cc1ccc(O)cc1)NC(=O)[C@H](CO)NC(=O)[C@H](CO)NC(=O)[C@@H](NC(=O)[C@H](CC(=O)O)NC(=O)[C@H](CO)NC(=O)[C@@H](NC(=O)[C@H](Cc1ccccc1)NC(=O)[C@@H](NC(=O)CNC(=O)[C@H](CCC(=O)O)NC(=O)[C@H](C)NC(=O)[C@@H](N)Cc1c[nH]cn1)[C@@H](C)O)[C@@H](C)O)C(C)C)C(=O)N[C@@H](C)C(=O)N[C@@H](Cc1c[nH]c2ccccc12)C(=O)N[C@@H](CC(C)C)C(=O)N[C@H](C(=O)N[C@@H](CCCCN)C(=O)NCC(=O)N[C@@H](CCCNC(=N)N)C(N)=O)C(C)C [GLP-1, glucagon-like peptide-1]",cellular location of GLP-1R-YFP after agonist stimulation,[1],the receptor appeared as punctate dots in the cytoplasm
same,t1/2 of receptor internalization (range of previous studies),[2],2 to 3 min
